Consider one compound from paper PMC3368272, “The host-seeking inhibitory peptide, Aea-HP-1, is made in the male accessory gland and transferred to the female during copulation” (Peptides, 2012).

Square brackets hold non-standard residues; d marks the D form. Peptide text beside a SMILES is read from it. Hyp = O=C(O)[C@@H]1C[C@@H](O)CN1; pGlu = O=C1CC[C@@H](C(=O)O)N1

The target of data set [1] is T1, D. melanogaster sex peptide receptor (SPR) (Drosophila melanogaster, UniProt Q8SWR3).
T1 construct: expressed in transfected cells; host or cells: CHO-K1 cells co-expressing aequorin and chimaeric G-protein Gαqi
T1 sequence (Q8SWR3 1-435): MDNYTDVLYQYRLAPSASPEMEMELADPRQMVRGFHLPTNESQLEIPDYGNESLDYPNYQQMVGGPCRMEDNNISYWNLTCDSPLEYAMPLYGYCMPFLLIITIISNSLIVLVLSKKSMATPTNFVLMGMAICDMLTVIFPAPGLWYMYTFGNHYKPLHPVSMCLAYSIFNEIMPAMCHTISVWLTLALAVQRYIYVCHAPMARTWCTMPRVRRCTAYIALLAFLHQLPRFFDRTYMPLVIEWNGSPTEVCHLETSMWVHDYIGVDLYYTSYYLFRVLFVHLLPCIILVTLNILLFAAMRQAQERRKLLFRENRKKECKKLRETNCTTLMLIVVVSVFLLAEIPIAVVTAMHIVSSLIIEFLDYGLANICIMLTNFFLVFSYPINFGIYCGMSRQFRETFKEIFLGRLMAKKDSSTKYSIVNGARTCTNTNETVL
The experiment in a line: Ligand-mediated receptor activation, CHO-K1 cells expressing aequorin. Particulars: D. melanogaster SPR in CHO cells with aequorin and Gαqi; up to 10 μM; n = 4. Type of data set: cell-based. The method, then:
(§1) Ligand-mediated receptor activation was measured using an established expression system employing CHO-K1 cells expressing the Ca^2+ reporter aequorin [42]. The construction of the expression constructs for D. melanogaster sex peptide receptor (SPR) and A. aegypti SPR and the measurement of the luminescent signals have been reported previously.
(§2) Fig. 6 Aea-HP-1 is not an active agonist for SPRs from D. melanogaster (A) and A. aegypti (B). Luminescent responses of CHO cells expressing SPR, aequorin and a chimaeric G-protein, Gαqi, and treated with varying concentrations of Aea-HP-1 and SP. Each data point is mean ± s.d. (n = 4).

In data set [2] the test system is A. aegypti SPR. The description is as above. Type of data set: cell-based, Aedes aegypti. Particulars: A. aegypti SPR in CHO cells with aequorin and Gαqi; up to 10 μM; n = 4. The protocol:
as §1, §2

Data set [3] relates to virgin D. melanogaster females. Description: Post-mating response (receptivity) after injection into virgin females. Type of data set: in vivo, Drosophila melanogaster. Particulars: injected into the hemocoel of virgin D. melanogaster females; receptivity assayed 5 h after injection with naive Canton-S males. The method, then:
Injections of either Aea-HP-1 or SP into the abdomen of virgin D. melanogaster females were performed as described previously. After injection, females were transferred to individual food vials and were tested after 5 h for receptivity with a naive Canton S male.
Receptivity of virgin females assayed 5 h after injection with either synthetic peptides (Aea-HP-1 or SP) or Ringer's solution alone. Wild type W1118 females were injected and assayed with naïve Canton-S males. Numbers in parenthesis indicate numbers of animal assayed. n.s., p > 0.05; ***p < 0.0001, one-way ANOVA (Tukey post-test) compared with Ringer treatment.

Data set [4] concerns virgin A. aegypti females. Description: Mating rejection after injection into the hemocoel of virgin females. In kind it is in vivo, Aedes aegypti. Particulars: 0.1–1 μg injected into the hemocoel of virgin A. aegypti females; data not presented. The source says:
Transplantation of MAGs, or injection of gland extracts, into female A. aegypti can elicit a variety of post-mating responses including refractoriness to re-mating and inhibition of host-seeking and biting behavior [13]. […] This failure might be due to lack of accessibility and the known rapid catabolism of Aea-HP-1 in the hemolymph. D. melanogaster SP has wide-ranging effects on physiology and behavior some of which are mediated primarily through activation of the SP/MIP receptor that is expressed in sensory neurons of the uterus. The D. melanogaster SP receptor and its A. aegypti orthologue are also strongly activated by myoinhibitory peptides (MIPs), a family of peptides that are found in species from different insect orders and are considered to be the ancestral ligands for these receptors [[19,33,41]]. The receptors are also activated by unidentified ligands present in whole body extract of adult A. aegypti. Although Aea-HP-1 has no obvious structural similarity to either SP or MIP, the promiscuity of the SP/MIP receptor led us to consider the possibility that the head peptide might also be an agonist of the MIP receptor.

On the set-up of data set [5]: species or system Aedes aegypti. The settings on record: in vivo. The method, then: Tissues were dissected from adult mosquitoes in phosphate buffered saline (PBS, MP Biomedicals, Cambridge, UK) and collected into acidified methanol (86%, v/v, aqueous methanol and 5% v/v glacial acetic acid). MAGs and male seminal vesicles (SVs) (5 pairs per 100 μl) were typically prepared for analysis by infusing whole tissues in acidified methanol for 30 min, then centrifuging for 10 min at 13,000 rpm in a bench-top microcentrifuge, retaining the supernatant. Homogenization was avoided to provide a cleaner sample for analysis. […]
Mosquito tissues were analyzed for Aea-HP-1 by subjecting either acidified methanol extracts or intact tissues to MALDI/TOF-MS analysis. […]
MALDI/TOF-MS was used to analyze methanol extracts for the presence of Aea-HP-1 in the reproductive tract (uterus, spermathecae, bursa copulatrix, oviduct, but not the ovary) of individual virgin and post-mated females obtained by introducing a single female into a cage of 50 males until mating was observed (<5 min). […] In contrast, the molecular ions for Aea-HP-1 (m/z, 1227.9) and Aea-HP-3 (m/z, 1211.9) were detected in methanol extracts of tissues from nine out of thirteen post-copulated females. Extracts were also analyzed quantitatively by ELISA using synthetic Aea-HP-1 as a standard and the results were compared to the amount of material found in extracts of MAGs dissected from virgin males. […]

For data set [6] the following is noted: mosquito hemolymph, after 30 min; cited from earlier work. An excerpt:
(§3) Aea-HP-1 has been tested for myogenic and behavior modifying activity in A. aegypti.

Data set [7] has as its system isolated oviduct and hindgut of female mosquitoes. Particulars: female A. aegypti tissues; cited from earlier work.
From the text: as §3

The test system of data set [8] is non-öogenic females. The settings on record: cited from earlier work.
From the text: as §3

Take `CC(C)C[C@H](NC(=O)[C@H](CO)NC(=O)[C@@H]1C[C@@H](O)CN1C(=O)[C@@H]1CCCN1C(=O)[C@H](CCCNC(=N)N)NC(=O)[C@@H]1CCC(=O)N1)C(=O)N[C@@H](CCCCN)C(=O)N[C@H](C(=O)N[C@@H](CCCNC(=N)N)C(=O)N[C@@H](Cc1ccccc1)C(N)=O)[C@@H](C)O` [Aea-HP-1, pERPhPSLKTRFamide] ([pGlu]RP[Hyp]SLKTRF-NH2): the “activation of SP/MIP receptor (luminescent response)” value in data set [1] and in data set [2] was “did not activate” in each case. Moreover, the “rejection of male advances (post-mating response)” value in data set [3] was “did not elicit rejection of male advances”. Besides, the “induction of mating rejection” value in data set [4] was “not been able to show that Aea-HP-1 can induce mating rejection”. For the same compound, the “persistence in the female reproductive tract after copulation” value in data set [5] is listed as “less than 2 h”. Also, the “peptide remaining in the circulation” value in data set [6] was “around 17%”. Further, the “stimulation of contractions of isolated oviduct and hindgut” value in data set [7] is reported as “did not stimulate contractions”. Further, the “effect on host-seeking behavior” value in data set [8] (injected into female A. aegypti) is “inhibiting host-seeking behavior”. The “duration of reduction in host-seeking” value in data set [8] (injected into non-öogenic female A. aegypti) is “up to 5 h”.
